According to patent US20060277615A1, “Method of determining xenograft responses” (priority 2003, published 2006):

Tests used:
[1] = tested on: PC3 cells stably engineered to contain the SFN-hCG(myc)-Amp construct; test: hCG induction in PC3 cells stably engineered to contain the SFN-hCG(myc)-Amp construct (ELISA of medium); type: cell-based, human; settings: stable PC3 cell line, 24 hours
Description: To generate a stable cell line, transfection was carried out as above. After 24 hours the cells were trypsinised and transferred to 10 cm tissue culture dishes (one well of a six well plate per 10 cm dish). The cells were allowed to grow on these dishes for 7 days prior to selection. After this time, G418 (20 ng/ml in cell culture medium) was added and the dishes maintained until colonies became visible (approximately one week). Individual colonies were picked using cloning discs soaked in typsin and transferred to individual wells of a 24 well plate. The colonies were then expanded to 6 well plates then T25 flasks and grown up until sufficient cells were present for use in in vitro inductions and xenograft experiments. Following the generation of a stable cell line containing the SFN-hCG(myc)-Amp reporter construct, the cells were further tested using etoposide. The cells were plated out on 6 well plates and allowed to adhere overnight. The next day they were treated with etoposide (50 or 400 μM) or vehicle (dimethyl sulphoxide). After 24 hours in the presence or absence of etoposide, samples of the medium were taken and assayed for hCG by enzyme-linked immunosorbent assay as above.

[2] = tested on: PC3/SFN cells xenografted tumours; test: Urine hCG in nude mice bearing PC3/SFN-hCG(myc)-Amp reporter xenografts; type: in vivo, congenitally athymic nude mice; settings: for increase of normalised urine hCG levels: 48 hours post-dosing vs pre-dose, normalised against urine creatinine, relative to tumour volume; for hCG expression in individual mice compared to vehicle controls: single dose ip (etoposide 40 mg/kg, camptothecin 30 mg/kg), urine 48 hours after drug administration
Description: PC3 cells stably transfected with the SFN-hCG(myc)-Amp reporter construct were allowed to grow as solid subcutaneous tumours in congenitally athymic nude mice. The mice were then treated with anticancer drugs that act by inducing G2/M arrest. The drugs chosen for this exemplification were etoposide and camptothecin [12]. […] Wild-type and engineered PC3 tumour cell lines were cultured in RPMI medium supplemented with 10%-15% heat inactivated foetal calf serum, 2 mM L-glutamine, penicillin (50 IU/ml), streptomycin (50 μg/ml). Culture medium for PC3/SFN cells also contained G418 (200 μg/ml). Cultures were incubated in a humidified incubator at 37° C., 5% CO2. Cells were harvested, pooled, centrifuged, and re-suspended in cold medium. This was mixed with an equal volume of cold Matrigel, so that the tumour cell injection solution was a 50:50 mixture of tumour cells/medium and Matrigel for each cell line. Wild type or transfected PC3 cells were injected at 2.5×10^6 per animal. All cell lines were injected in a volume of 100 μl in the right hand flank only. The study consisted of 4 groups in total, each containing 4 animals. One group of mice was implanted with wild type PC3 cells and the remaining 3 groups with engineered cells. Tumour growth was measured twice-weekly following cell implantation until tumours reached 2-5 mm in diameter. Tumour volume (V) was calculated using the formula: V= 4/3π((d1+d2)/4)^3, where d=mean diameter (n=2) Treatment began 5 weeks after tumour implantation. Wild type PC3-xenografted mice remained untreated; all other mice were administered vehicle only (DMSO/saline) or test substances. Single administrations of Camptothecin (30 mg/kg) and Etoposide (40 mg/kg) were administered ip at 10 ml/kg. Additionally, Etoposide (25 mg/kg) was administered to a single group of mice over three consecutive days (ip; 10 ml/kg). Urine samples were harvested before, during and after drug administration. Animals were sacrificed 48 hours after treatment. Urine was analysed for hCG and values normalised against urine creatinine levels.

[3] = tested on: PC3 cells containing the SFN-hCG(myc)-Amp reporter construct; test: hCG induction in PC3 cells transiently transfected with SFN-hCG(myc)-Amp reporter construct (ELISA of medium); type: cell-based, human; settings: 50 μM etoposide, 24 hours, vs untreated
Description: The SFN-hCG(myc)-Amp reporter construct was transfected into PC3 cells on 6-well tissue culture plates using FuGene reagent (Roche, Lewes, East Sussex). Construct DNA (equivalent to 1 μg/well) was added to FuGene reagent (3 μl/well) and made up to 100 μl/well with serum free medium. The medium in which the cells were growing was aspirated off and replaced with 100 μl of the above mixture per well. For transient transfections, the cells were used for experiments 24 hours after the addition of the construct.

Row | SMILES | amount of hCG secreted at higher concentration ([1]; 400 μM vs 50 μM etoposide) | amount of hCG secreted into the surrounding medium ([1]; etoposide 50 or 400 μM, vs vehicle (dimethyl sulphoxide)) | hCG levels at 24 and 48 hours following a third dose ([2]; 3 consecutive doses of 25 mg/kg ip, 24 and 48 hours after third dose) | normalised hCG expression following the first dose ([2]; 3 consecutive doses of 25 mg/kg ip, after first dose) | normalised hCG expression following a second dose ([2]; 3 consecutive doses of 25 mg/kg ip, after second dose) | anti-tumour effect against the PC3/SFN cells ([2]; 3 consecutive doses of 25 mg/kg ip, inferred from the drop in urine hCG) | increase of normalised urine hCG levels ([2]; single dose 40 mg/kg ip) [fold] | hCG expression in individual mice compared to vehicle controls [2] | amount of hCG secreted into the surrounding medium [3] | increase of normalised urine hCG levels ([2]; single dose 30 mg/kg ip) [fold]
1 | COc1cc([C@@H]2c3cc4c(cc3[C@@H](O[C@@H]3O[C@@H]5CO[C@@H](C)O[C@H]5[C@H](O)[C@H]3O)[C@H]3COC(=O)[C@H]23)OCO4)cc(OC)c1O [etoposide] | increased | increased | dropped to control levels | sharp increase | remained at this level | exhibited an anti-tumour effect | 4.29 | significantly increased | increased | 
2 | CC[C@@]1(O)C(=O)OCc2c1cc1n(c2=O)Cc2cc3ccccc3nc2-1 [camptothecin] |  |  |  |  |  |  |  | significantly increased |  | 5.29
